# Where two headings read alike, the source gives them in different places.
# How the values were obtained:
# [1] = tested on: MCF-7 cells; experiment: Annexin V/PI apoptotic assay; format: cell-based, human; settings: for percentage of Annexin V-staining positive cells: 48 h, untreated 1%; for percentage of early and late apoptotic cells: 72 h, untreated 2%
# Procedure: Apoptotic cell death was detected by flow cytometry using Annexin V and propidium iodide (PI). […] Cells were then harvested and prepared for flow cytometric analysis. Cells were washed in 1X binding buffer (20X binding buffer: 0.1 M HEPES, pH 7.4; 1.4 M NaCl; 25 mM CaCl2 diluted in dH2O) and incubated in the dark for 30 min on ice in Annexin V-containing binding buffer [1:100]. Cells were then washed once in binding buffer and then re-suspended in PI-containing binding buffer [1:1000]. Samples were analysed immediately using the BD accuri flow cytometer and prism software for analysis the data. Four populations are produced during the assay Annexin V and PI negative (Q4, healthy cells), Annexin V positive and PI negative (Q3, early apoptosis), Annexin V and PI positive (Q2, late apoptosis) and Annexin V negative and PI positive (Q1, necrosis).
# [2] = tested on: HCT-116; experiment: MTT cell viability assay, HCT-116 colorectal carcinoma cells; format: cell-based; settings: Homo sapiens, 72 h
# Procedure: (§1) The four human tumour cell lines MCF-7, HCT-116, HL-60 and HeLa used in this study were obtained from the VACSERA (Giza, Egypt) cell culture unit that were originally acquired from ATCC (Manassas, VA, USA). All the human tumour cell lines were cultured in Dulbecco’s Modified Eagle’s Medium (DMEM) with 10% foetal bovine serum, 2 mM L-glutamine and 100 µg/mL penicillin/streptomycin. Cells were maintained at 37 °C in 5% CO2 in a humidified incubator. All cells were sub-cultured 3 times/week by trypsinisation using TrypLE Express (1X).
# (§2) The quinoline compounds were evaluated for antiproliferative effect using the MTT viability assay of four cancer cell lines (MCF-7, HCT-116, HL-60 and HeLa) and normal breast cells MCF-10A to calculate the relative IC50 values for each compound. Cells were seeded in triplicate in 96-well plates at a density of 10 × 10^3 cells/ml in a total volume of 200 µl per well. 0.1% of DMSO was used as a vehicle control. Following, the cells were treated with 2 µl test compound (from stock solutions in ethanol) to furnish the concentration range of study, 1 nM to 50 µM, and re-incubated for a further 72 h. The culture medium was then removed, and the cells washed with 100 µL phosphate buffered saline (PBS) and 50 µL MTT added, to reach a final concentration of 1 mg/mL. Cells were incubated for 2 h in darkness at 37 °C. Solubilisation was begun through the addition of […] DMSO, and the cells maintained at room temperature in darkness for 20 min to ensure thorough colour diffusion before reading the absorbance. Plates were incubated for 72 h at 37 °C + 5% CO2. The MTT (5 mg/mL in PBS) was added and incubated for another 4 h, and the optical density was detected with a microplate reader at 570 nm. Results were expressed as percentage viability relative to vehicle control (100%). Dose response curves were plotted and IC50 values (concentration of drug resulting in 50% reduction in cell survival) were obtained using the commercial software package Prism (GraphPad Software, Inc., La Jolla, CA, USA). All the experiments were repeated in at least three independent experiments.
# [3] = tested on: MCF-7; experiment: MTT cell viability assay, MCF-7 breast adenocarcinoma cells; format: cell-based; settings: Homo sapiens
# Procedure: as §1, §2
# [4] = tested on: bovine brain tubulin; experiment: Tubulin polymerisation assay; format: biochemical; settings: Tubulin was at 10 µM; read-out: Tubulin assembly IC50 (inhibition of tubulin polymerisation)
# Procedure: The assembly of purified bovine tubulin was monitored using a kit, BK006, purchased from Cytoskeleton Inc., (Denver, CO, USA). The assay was carried out in accordance with the manufacturer’s instructions using the standard assay conditions. Briefly, purified ([…]) in a buffer consisting of 80 mM PIPES (pH 6.9), 0.5 mM EGTA, 2 mM MgCl2, 1 mM GTP and 10% glycerol was incubated at 37 °C in the presence of either vehicle (2% (v/v) ddH2O), CA-4, or the quinoline compounds. Light is scattered proportionally to the concentration of polymerised microtubules in the assay. Therefore, tubulin assembly was monitored turbidimetrically at 340 nm in a Spectramax 340 PC spectrophotometer (Molecular Devices, Sunnyvale, CA, USA). The concentration that inhibits tubulin polymerisation by 50% (IC50) was determined using area under the curve (AUC). The AUC of the untreated controls were considered as 100% polymerisation. The IC50 value for each compound was computed using GraphPad Prism Software.
# [5] = tested on: HeLa; experiment: MTT cell viability assay, HeLa cervical adenocarcinoma cells; format: cell-based; settings: Homo sapiens, 72 h
# Procedure: as §1, §2
# [6] = tested on: MCF-7 cells; experiment: Cell cycle analysis (PI, flow cytometry); format: cell-based, human; settings: for percentage of cells in G0/G1 phase: control 57.3%
# Procedure: MCF-7 cells were seeded at a density of 1 × 10^5 cells/well in 6-well plates and treated with CA-4 (50 nM) and compound 12c (50 and 250 nM) for 24, 48 and 72 h. The cells were collected by trypsinisation and centrifuged at 800×g for 15 min. Cells were washed twice with ice-cold PBS and fixed in ice-cold 70% ethanol overnight at −20 °C. Fixed cells were centrifuged at 800×g for 15 min and stained with 50 µg/mL of PI, containing 50 µg/mL of DNase-free RNase A, at 37 °C for 30 min. The DNA content of cells (10,000 cells/experimental group) was analysed by flow cytometer at 488 nm using a FACSCalibur flow cytometer (BD Biosciences, San Jose, CA) and all data were recorded and analysed using the CellQuest Software (Becton-Dickinson).
# [7] = tested on: caspase-9; experiment: Caspase-9 activation assay; format: cell-based, human
# Procedure: The level of the anti-apoptotic marker and apoptotic marker BAX were assessed using Bcl-2 Elisa kit and human Bax ELISA Kit purchased from Zymed laboratories, invitrogen and Cloud-Clone Crop. (Katy, TX, USA), respectively, following the manufacturer’s instructions. Briefly, Treated MCF-7 cell lysate with 250 nM of compound 12c were prepared, and equal amount of cell lysates were loaded and propped with specific antibodies. The samples were measured and analysed at 450 nm in ROBONEK P2000 ELISA reader. In Vitro Caspase-9 Activation Assay was performed using human active caspase-9 Invitrogen EIA kit according to the manufacturer’s instructions. Compound 12c at concentrations of 50 and 250 nM and CA-4 (50 nM) were prepared in dH2O up to a final volume of 50 µL/well followed by addition of 5 µL of active caspase-9. Following, the cells were mixed and 50 µL of the Master Mix was added to each well and allowed to react at 37 °C for 1 h. The fluorescence intensity of the test samples was recorded and analysed in a fluorescence plate reader at 400 nm excitation and 505 nm emissions. All experiments were conducted in triplicates.
# [8] = MCF7, 72 h, read-out: IC50 value, MCF-7
smiles,measurement,setting,value
"COc1ccc(/C=C\c2cc(OC)c(OC)c(OC)c2)cc1O [CA-4, Combretastatin A-4]",percentage of Annexin V-staining positive cells,[1]; 50 nM,29%
same,IC50,[2],0.026 ± 0.001 µM
same,IC50,[3]; [8],0.019 ± 0.004 µM
same,IC50,[5],0.064 ± 0.004 µM
same,"apoptosis, proportion of cells in sub-G1 phase","[6]; 50 nM, 24 h",23.5%
same,percentage of cells in G2/M phase,"[6]; 50 nM, 24 h",40.3%
same,"apoptosis, proportion of cells in sub-G1 phase","[6]; 50 nM, 48 h",31.1%
same,percentage of cells in G2/M phase,"[6]; 50 nM, 48 h, untreated 9.2%",43.8%
same,"apoptosis, proportion of cells in sub-G1 phase","[6]; 50 nM, 72 h",37.4%
same,percentage of cells in G2/M phase,"[6]; 50 nM, 72 h",47.7%
same,increase in caspase-9 activation,"[7]; MCF-7, 50 nM",14 fold
"COc1cc(C2=NC(=Cc3cc4ccc(C)cc4nc3OC)C(=O)O2)cc(OC)c1OC [Compound 12c, 4-[(2-Methoxy-7-methylquinolin-3-yl)methylene]-2–(3,4,5-trimethoxyphenyl) oxazol-5(4H)-one]",percentage of Annexin V-staining positive cells,[1]; 250 nM,21%
same,percentage of Annexin V-staining positive cells,[1]; concentration printed as 0 nM,15%
same,percentage of early and late apoptotic cells,[1]; concentration printed as 1 µM,17.6%
same,percentage of early and late apoptotic cells,[1]; concentration printed as 5 µM,29.3%
same,IC50,[2],0.022 ± 0.001 µM
same,IC50,[3]; [8],0.01 ± 0.003 µM
same,IC50,"[3]; MCF7, read-out: IC50, MCF-7",0.019 µM
same,IC50,[4],1.21 µM
same,IC50,[5],0.042 ± 0.001 µM
same,percentage of cells in G2/M phase,"[6]; 50 nM, 48 h, untreated 9.2%",28.4%
same,percentage of cells in G2/M phase,"[6]; 50 nM, 72 h",33.0%
same,percentage of cells in G0/G1 phase,"[6]; 50 nM, 72 h",40.3%
same,"apoptosis, proportion of cells in sub-G1 phase","[6]; 250 nM, 24 h, untreated 1.5%",16.2%
same,"apoptosis, proportion of cells in sub-G1 phase","[6]; 250 nM, 48 h, untreated 1.5%",23.4%
same,percentage of cells in G2/M phase,"[6]; 250 nM, 48 h, untreated 9.2%",38.3%
same,percentage of cells in G2/M phase,"[6]; 250 nM, 72 h",40.8%
same,percentage of cells in G0/G1 phase,"[6]; 250 nM, 72 h",29.8%
same,"apoptosis, proportion of cells in sub-G1 phase","[6]; 250 nM, 72 h, untreated 1.5%",32.7%
same,increase in caspase-9 activation,"[7]; MCF-7, 50 nM",about 8 fold
same,increase in caspase-9 activation,"[7]; MCF-7, 250 nM",~16 fold
